Measured values reported in the supplement of paper PMC6461962.
Counter-ions that a name gives are not always drawn.

Assays:
[1] = system: Pseudomonas fluorescens FW300-N2E2
How it was run: (§1)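 Cells were washed and added to 384-well plates at a final OD600 of 0.02 in 80 µL, with serial dilutions of inorganic ion salts or equimolar nitrilotriacetic acid complexes. Aerobic plates were shaken at 700 rpm at 30 °C, while anaerobic plates were not shaken, and OD600 was read at 24 h, or at 48 h for R2A strain comparisons. Readings were scaled between water controls and growth-blocking antibiotic controls, and wells with precipitate were excluded. The IC50 was obtained by fitting curves from at least two biological replicates with the drc R package.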

[2] = system: Rhodanobacter sp. FW104-10B01
How it was run: as §1

[3] = medium / electron acceptor: N2E2 Glucose/aerobic
[4] = medium / electron acceptor: N2E2 Glucose/aerobic 0.25xMinerals
[5] = medium / electron acceptor: N2E2 Glucose/aerobic (2)
[6] = medium / electron acceptor: N2E2 KB/aerobic
[7] = medium / electron acceptor: N2E2 LB/aerobic
[8] = medium / electron acceptor: N2E2 LB/aerobic (2)
[9] = medium / electron acceptor: N2E2 LB/nitrate
[10] = medium / electron acceptor: N2E2 Lactate/aerobic
[11] = medium / electron acceptor: N2E2 R2A/aerobic
[12] = medium / electron acceptor: 10B01 R2A/aerobic
[13] = medium / electron acceptor: 10B01 R2A/nitrate

SMILES | IC50 growth inhibition [1, 3] [mM] | IC50 growth inhibition [1, 4] [mM] | IC50 growth inhibition [1, 5] [mM] | IC50 growth inhibition [1, 6] [mM] | IC50 growth inhibition [1, 7] [mM] | IC50 growth inhibition [1, 8] [mM] | IC50 growth inhibition [1, 9] [mM] | IC50 growth inhibition [1, 10] [mM] | IC50 growth inhibition [1, 11] [mM] | IC50 growth inhibition [2, 12] [mM] | IC50 growth inhibition [2, 13] [mM]
O.O.O.O.O.O.[Cl][Cr]([Cl])[Cl] [Chromium(III) Chloride Hexahydrate] | < 0.00244 | < 0.00244 | < 0.00244 | > 5 | 4.91 | 4.91 | > 5 | < 0.00244 | 0.322 | 2.16 | 3.46
O.O.[Ba+2].[Cl-].[Cl-] [Barium chloride dihydrate] | > 5 | 3.19 | 2.84 | 3.22 | > 5 | > 5 | 4.99 | > 5 | > 5 | > 5 | > 5
[Ce+3].[Cl-].[Cl-].[Cl-] [Cerium(III) chloride] | < 0.244 | < 0.244 | < 0.244 | < 0.244 | < 0.244 | < 0.244 | < 0.244 | < 0.244 | < 0.244 | < 0.244 | < 0.244
[K+].[OH-].[OH-].[OH-].[OH-].[OH-].[OH-].[Sb+3] [potassium hexahydroxoantimonate] | > 5 | 3.96 | 4.82 | 4.98 | > 5 | 4.82 | 3.08 | > 5 | > 5 | > 5 | > 5
[Cl][Pt]([Cl])([Cl])[Cl] [platinum (IV) chloride] | 0.0175 | 0.0175 | 0.0175 | 0.0352 | 0.172 | 0.0661 | 0.0329 | 0.418 | 0.0861 | 0.123 | 0.0935
O.O.O.O.[Cl][Mn][Cl] [Manganese (II) chloride tetrahydrate] | > 5 | > 5 | 1.57 | > 5 | 3.79 | 3.91 | > 5 | > 5 | 1.45 | > 5 | > 5
[Cl-].[Na+] [Sodium Chloride] | 699 | 708 | 603 | 660 | 708 | 718 | 622 | 707 | 671 | 708 | 545
O.O.O.O.O.O.O.O=[As]([O-])([O-])O.[Na+].[Na+] [Sodium arsenate dibasic heptahydrate] | < 0.244 | < 0.244 | < 0.244 | < 0.244 | < 0.244 | < 0.244 | 5.13 | < 0.244 | 0.874 | > 500 | > 500
[Cl][Pd][Cl] [Palladium(II) chloride] | < 0.00244 | < 0.00244 | < 0.00244 | 3.73 | > 5 | 3.78 | > 5 | < 0.00244 | 0.249 | > 5 | > 5
O=[Se](=O)([O-])[O-].[Na+].[Na+] [Sodium selenate] | < 0.244 | < 0.244 | < 0.244 | 290 | 354 | 300 | 189 | < 0.244 | 62.5 | 251 | 163
NO [Hydroxylamine hydrochloride] | < 0.244 | < 0.244 | < 0.244 | < 0.244 | < 0.244 | < 0.244 | 0.694 | < 0.244 | < 0.244 | 31.9 | > 500
[Cl-].[Cl-].[Zn+2] [Zinc chloride] | < 0.00244 | < 0.00244 | < 0.00244 | 2.72 | 2.62 | 2.55 | 0.58 | < 0.00244 | 0.0704 | 1.77 | 4.5
O.O.O.O.O.O.[Cl-].[Cl-].[Mg+2] [Magnesium chloride hexahydrate] | 276 | 431 | 366 | 354 | 354 | 360 | 321 | 354 | 268 | 218 | 141
O=[N+]([O-])[O-].[Na+] [Sodium nitrate] | 275 | > 500 | 324 | 354 | 354 | 383 | > 500 | 354 | 400 | > 500 | > 500
[O-][I+3]([O-])([O-])O [Sodium periodate] | 5.52 | 2.35 | 1.56 | 0.326 | 0.813 | 2.35 | 0.146 | 27.4 | 0.772 | 0.101 | 0.0825
[K+].[K+].[O]=[Cr](=[O])([O-])[O-] [Potassium chromate] | < 0.244 | < 0.244 | < 0.244 | < 0.244 | < 0.244 | < 0.244 | 31 | < 0.244 | 0.0094 | 0.123 | < 0.244
O.O.[Cl][Cu][Cl] [copper (II) chloride dihydrate] | 0.0767 | 0.0767 | 0.0767 | > 5 | > 5 | > 5 | > 5 | 0.0767 | 0.525 | > 5 | > 5
O=C(O)C[C@H](NCCN[C@@H](CC(=O)O)C(=O)O)C(=O)O [Ethylenediamine-N,N'-disuccinic acid] | < 0.122 | < 0.122 | < 0.122 | < 0.122 | < 0.122 | < 0.122 | 0.488 | < 0.122 | < 0.122 | 1.76 | 2.76
O.O=[Te]([O-])[O-].[K+].[K+] [Potassium tellurite hydrate] | < 0.00244 | < 0.00244 | < 0.00244 | < 0.00244 | < 0.00244 | < 0.00244 | 0.01 | < 0.00244 | < 0.00244 | 0.01 | 0.01
O=NO [Sodium nitrite] | 17.3 | 6.63 | 3.89 | 15.3 | 22.8 | 41.6 | 14.8 | 23 | 8.81 | > 50 | > 50
O=C(O)CN(CC(=O)O)CC(=O)O [Nitrilotriacetic acid] | 0.345 | 21.4 | 6.51 | 15.3 | 54.7 | 111 | 6.75 | < 0.122 | 9.21 | > 250 | > 250
[Cl][Bi]([Cl])[Cl] [bismuth(III) chloride] | 0.0103 | 0.00276 | 0.00153 | 0.0578 | 0.0727 | 0.103 | 0.00603 | 0.00786 | 0.00401 | 0.00279 | 0.354
